# Data from paper PMC10064984, “Anti-cyclooxygenase, anti-glycation, and anti-skin aging effect of Dendrobium officinale flowers’ aqueous extract and its phytochemical validation in aging” (Frontiers in Immunology, 2023).
# Values joined by “and” are separate entries in the source; they are usually repeats but may differ in a detail not shown here. Equal entries are not always repeated.
# What was measured:
# Type in all cases: biochemical
# [1] = ABTS·+ decolourisation capacity; settings: for IC50: mean ± SD, n = 3; for ABTS scavenging rate: 0.5mM series, replicate wells, listed as T21
# In short: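 IC50 values were derived graphically from dose-inhibition curves, with % inhibition calculated versus a buffer-only (0.2 M phosphate, pH 7.4) control. Each sample (200 μl) reacted for 10 min with 100 μl ABTS·+ reagent pre-set to A729 0.8 ± 0.05, then absorbance at 729 nm was measured in triplicate.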
# [2] = Fluorescent AGEs formation in a BSA-fructose/glucose system; settings: for inhibition of fluorescent AGEs formation (BSA-抗糖化), single replicate: individual replicate; for inhibition of fluorescent AGEs formation (BSA-抗糖化), 平均 (mean): mean of 3 replicates
# In short: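 Fluorescent AGE inhibition was measured in triplicate, correcting sample and control fluorescence for BSA-free blanks. Glycation used BSA incubated with D-fructose and D-glucose, with samples dissolved in DMSO:water (1:4).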
# [3] = FRAP total antioxidant capacity; settings: lower part of sheet (compound series);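 also: colourimetric FRAP kit assay read as absorbance in 96-well plates, values as mM FeSO4 via standard curve, EC1 being sample concentration matching 1.0 mmol/L FeSO4, Trolox positive control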
# DPPH· scavenging = settings: mean ± SD, n = 3
# COX-2 = molecular target: T1, COX-2 (Homo sapiens, UniProt P35354); test: Anti-COX-2 assay (COX-2 Inhibitor Screening Kit); settings: for COX-2 inhibition: single replicates
# T1 construct: purchased Beyotime S0168
# T1 sequence (P35354 18-604): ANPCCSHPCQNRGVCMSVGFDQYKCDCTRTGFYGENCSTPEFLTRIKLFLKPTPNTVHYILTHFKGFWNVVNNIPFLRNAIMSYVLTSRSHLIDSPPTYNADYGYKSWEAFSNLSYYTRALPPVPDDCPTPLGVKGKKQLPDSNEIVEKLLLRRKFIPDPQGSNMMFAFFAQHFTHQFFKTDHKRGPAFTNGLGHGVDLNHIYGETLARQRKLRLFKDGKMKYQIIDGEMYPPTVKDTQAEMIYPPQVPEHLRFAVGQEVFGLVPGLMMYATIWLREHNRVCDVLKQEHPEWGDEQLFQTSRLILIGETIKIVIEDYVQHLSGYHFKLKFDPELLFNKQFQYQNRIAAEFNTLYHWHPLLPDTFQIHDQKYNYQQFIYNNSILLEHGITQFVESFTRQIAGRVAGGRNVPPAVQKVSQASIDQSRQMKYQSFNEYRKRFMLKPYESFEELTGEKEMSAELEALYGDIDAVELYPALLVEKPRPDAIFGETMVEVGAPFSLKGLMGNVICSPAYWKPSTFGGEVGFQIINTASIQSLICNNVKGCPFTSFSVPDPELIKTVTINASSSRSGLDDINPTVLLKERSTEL
# [4] = mean ± SD, n = 3, read-out: BSA-glycation IC50
substance,measurement,setting,value
Kaempferol-3-O-rutinoside [compound 28],IC50,[1],35.01 ± 0.22 µM
same,"inhibition of fluorescent AGEs formation (BSA-抗糖化), single replicate","[2]; 15.625 µM, listed as T12, 15.625 µM",-0.31% and 7.28% and -2.72%
same,"inhibition of fluorescent AGEs formation (BSA-抗糖化), 平均 (mean)",[2]; 15.625 µM,1.41%
same,"inhibition of fluorescent AGEs formation (BSA-抗糖化), single replicate","[2]; 31.25 µM, listed as T12, 31.25 µM",6.95% and 5.50% and 2.44%
same,"inhibition of fluorescent AGEs formation (BSA-抗糖化), 平均 (mean)",[2]; 31.25 µM,4.96%
same,"inhibition of fluorescent AGEs formation (BSA-抗糖化), single replicate","[2]; 62.5 µM, listed as T12, 62.5 µM",13.47% and 13.89% and 14.50%
same,"inhibition of fluorescent AGEs formation (BSA-抗糖化), 平均 (mean)",[2]; 62.5 µM,13.95%
same,"inhibition of fluorescent AGEs formation (BSA-抗糖化), single replicate","[2]; 125 µM, listed as T12, 125 µM",22.45% and 28.29% and 22.60%
same,"inhibition of fluorescent AGEs formation (BSA-抗糖化), 平均 (mean)",[2]; 125 µM,24.45%
same,"inhibition of fluorescent AGEs formation (BSA-抗糖化), single replicate","[2]; 250 µM, listed as T12, 250 µM",38.13% and 38.77% and 37.66%
same,"inhibition of fluorescent AGEs formation (BSA-抗糖化), 平均 (mean)",[2]; 250 µM,38.19%
same,"inhibition of fluorescent AGEs formation (BSA-抗糖化), single replicate","[2]; 500 µM, listed as T12, 500 µM",58.09% and 57.21% and 56.73%
same,"inhibition of fluorescent AGEs formation (BSA-抗糖化), 平均 (mean)",[2]; 500 µM,57.34%
same,"inhibition of fluorescent AGEs formation (BSA-抗糖化), single replicate","[2]; 1000 µM, listed as T12, 1000 µM",74.99% and 76.95% and 73.93%
same,"inhibition of fluorescent AGEs formation (BSA-抗糖化), 平均 (mean)",[2]; 1000 µM,75.29%
same,"inhibition of fluorescent AGEs formation (BSA-抗糖化), single replicate","[2]; 2000 µM, listed as T12, 2000 µM",85.90% and 86.14% and 85.80%
same,"inhibition of fluorescent AGEs formation (BSA-抗糖化), 平均 (mean)",[2]; 2000 µM,85.95%
same,"inhibition of fluorescent AGEs formation (BSA-抗糖化), single replicate","[2]; 4000 µM (series head 'T9 4000µM', 2-fold dilutions), listed as T12",92.80% and 92.79% and 92.84%
same,"inhibition of fluorescent AGEs formation (BSA-抗糖化), 平均 (mean)",[2]; 4000 µM,92.81%
same,IC50,[2]; [4],374 ± 18.1 µM
same,FRAP EC1,[3],>5000 µM
same,IC50,DPPH· scavenging,> 5000 µM
same,COX-2 inhibition (in words),COX-2,no inhibitory effects
same,COX-2 inhibition,"COX-2; 3.125 μM, listed as T12, 3.125 µM",24.76% and 3.80%
same,COX-2 inhibition,"COX-2; 6.25 μM, listed as T12, 6.25 µM",9.88% and 6.40% and 22.14%
same,COX-2 inhibition,"COX-2; 12.5 μM, listed as T12, 12.5 µM",-1.05% and 3.59% and 13.88%
same,COX-2 inhibition,"COX-2; 25 μM, listed as T12, 25 µM",-5.04% and -8.91% and 26.95%
same,COX-2 inhibition,"COX-2; 50 μM, listed as T12, 50 µM",-2.18% and -5.56% and 1.52%
same,COX-2 inhibition,"COX-2; 100 μM, listed as T12, 100 µM",7.51% and -46.40% and 2.25%
same,COX-2 inhibition,"COX-2; 200 μM, listed as T12, 200 µM",-9.13% and -25.75% and 1.42%
Neoschaftoside [compound 21],ABTS scavenging rate,[1]; concentration 15.625 (unit not given),37.92% and 38.74% and 38.24%
same,ABTS scavenging rate,[1]; concentration 31.25 (unit not given),60.76% and 61.20% and 60.99%
same,ABTS scavenging rate,[1]; concentration 62.5 (unit not given),81.08% and 80.87% and 80.62%
same,ABTS scavenging rate,[1]; concentration 125 (unit not given),92.61% and 92.60% and 92.36%
same,ABTS scavenging rate,[1]; concentration 250 (unit not given),98.02% (2×) and 98.07%
same,ABTS scavenging rate,[1]; concentration 500 (unit not given),99.70% and 99.73% and 99.67%
same,IC50,[1],21.4 ± 0.24 µM
same,"inhibition of fluorescent AGEs formation (BSA-抗糖化), single replicate",[2]; 15.625 µM,0.054% and 0.23% and 1.18%
same,"inhibition of fluorescent AGEs formation (BSA-抗糖化), 平均 (mean)",[2]; 15.625 µM,0.49%
same,"inhibition of fluorescent AGEs formation (BSA-抗糖化), single replicate",[2]; 31.25 µM,5.09% and 4.69% and 3.66%
same,"inhibition of fluorescent AGEs formation (BSA-抗糖化), 平均 (mean)",[2]; 31.25 µM,4.48%
same,"inhibition of fluorescent AGEs formation (BSA-抗糖化), single replicate",[2]; 62.5 µM,7.25% and 9.67% and 10.17%
same,"inhibition of fluorescent AGEs formation (BSA-抗糖化), 平均 (mean)",[2]; 62.5 µM,9.03%
same,"inhibition of fluorescent AGEs formation (BSA-抗糖化), single replicate",[2]; 125 µM,20.04% and 20.34% and 19.73%
same,"inhibition of fluorescent AGEs formation (BSA-抗糖化), 平均 (mean)",[2]; 125 µM,20.04%
same,"inhibition of fluorescent AGEs formation (BSA-抗糖化), single replicate",[2]; 250 µM,36.81% and 35.45% and 36.08%
same,"inhibition of fluorescent AGEs formation (BSA-抗糖化), 平均 (mean)",[2]; 250 µM,36.11%
same,"inhibition of fluorescent AGEs formation (BSA-抗糖化), single replicate",[2]; 500 µM,54.95% and 55.05% and 56.69%
same,"inhibition of fluorescent AGEs formation (BSA-抗糖化), 平均 (mean)",[2]; 500 µM,55.56%
same,"inhibition of fluorescent AGEs formation (BSA-抗糖化), single replicate",[2]; 1000 µM,71.70% (2×) and 72.55%
same,"inhibition of fluorescent AGEs formation (BSA-抗糖化), 平均 (mean)",[2]; 1000 µM,71.98%
same,"inhibition of fluorescent AGEs formation (BSA-抗糖化), single replicate",[2]; 2000 µM,83.42% and 82.90% and 83.96%
same,"inhibition of fluorescent AGEs formation (BSA-抗糖化), 平均 (mean)",[2]; 2000 µM,83.43%
same,"inhibition of fluorescent AGEs formation (BSA-抗糖化), single replicate","[2]; 4000 µM (series head 'T9 4000µM', 2-fold dilutions)",91.13% and 89.60% and 90.19%
same,"inhibition of fluorescent AGEs formation (BSA-抗糖化), 平均 (mean)",[2]; 4000 µM,90.31%
same,IC50,"[2]; BSA anti-glycation, IC50 of each of 3 replicates, read-out: IC50, single replicate curve",432 µM and 437 µM and 421 µM
same,IC50,[2]; [4],430 ± 8 µM
same,FRAP EC1,[3],>5000 µM
same,IC50,DPPH· scavenging,> 5000 µM
same,COX-2 inhibition (in words),COX-2,no inhibitory effects
same,COX-2 inhibition,"COX-2; 31.25 μM, listed as T21, 31.25 µM",-6.16% and -4.80% and 6.61%
same,COX-2 inhibition,"COX-2; 62.5 μM, listed as T21, 62.5 µM",6.28% and 7.65% and 11.30%
same,COX-2 inhibition,"COX-2; 125 μM, listed as T21, 125 µM",1.19% and -2.74% and 1.96%
same,COX-2 inhibition,"COX-2; 250 μM, listed as T21, 250 µM",3.95% and 0.81% and 18.87%
same,COX-2 inhibition,"COX-2; 500 μM, listed as T21, 500 µM",-4.13% and -1.62% and 4.93%
same,COX-2 inhibition,"COX-2; 1000 μM, listed as T21, 1000 µM",-1.41% and 2.18% and 12.07%
same,COX-2 inhibition,"COX-2; 2000 μM (2mM), listed as T21",51.51% and 49.86% and 47.92%
Vicenin-3 [compound 19],IC50,[1],74.8 ± 0.92 µM
same,IC50,[2]; [4],243 ± 12 µM
same,FRAP EC1,[3],>5000 µM
same,IC50,DPPH· scavenging,> 5000 µM
same,COX-2 inhibition (in words),COX-2,no inhibitory effects
same,COX-2 inhibition,"COX-2; 31.25 μM, listed as T8, 31.25 µM",-27.09% and -25.76% and -19.42%
same,COX-2 inhibition,"COX-2; 62.5 μM, listed as T8, 62.5 µM",-19.03% and -34.16% and -24.78%
same,COX-2 inhibition,"COX-2; 125 μM, listed as T8, 125 µM",-26.82% and -40.95% and -33.02%
same,COX-2 inhibition,"COX-2; 250 μM, listed as T8, 250 µM",-32.94% and -46.72% and -42.57%
same,COX-2 inhibition,"COX-2; 500 μM, listed as T8, 500 µM",-35.30% and -54.98% and -48.28%
same,COX-2 inhibition,"COX-2; 1000 μM, listed as T8, 1000 µM",-23.28% and -61.50% and -50.44%
same,COX-2 inhibition,"COX-2; 2000 μM (2mM), listed as T8",-50.77% and -55.05% and -54.78%
